The source of these data is patent publication US11191774B2, “Drug formulations for cancer treatment” (The Regents of the University of California, priority 2015, dated 2021).

Where “and” joins values, the source holds several entries; their conditions need not be identical. Equal values may be shown once.

The test system of data set [1] is MCF 10A human breast epithelial cells. Briefly: MTT toxicity against healthy epithelial cells. As to conditions: synergistic ratio R=819 vs single drug. The data set is classed as cell-based. As to the method: (§1) For cell viability studies, BT-474 cells were seeded at a density of 10,000 cells per well in 100 μL cell culture medium, grown overnight and incubated with drug solutions for 72 hours. Cell viability was assessed post drug-incubation via 3-(4,5-Dimethylthiazol-2-yl)-2,5-diphenyltetrazolium bromide (MTT; Invitrogen Life Technologies) assays. Individual drug concentrations which inhibit 50% cell growth (D50) were first determined by fitting dose-effect data to the median-effect model (Chou and Talalay, Advances in Enzyme Regulation 1984, 22, 27-55). For combinatorial studies, 5FU and DOX were simultaneously incubated with BT-474 cells at ratios of differing multiples of their D50 concentrations, and cell viability was subsequently assessed. CI values were further calculated, as previously described (Chou, Pharmacological Reviews 2006, 58(3): p. 621-621), with the designations of CI<1, CI=1, and C>1 respectively representing synergy, additivity, and antagonism. The same methodology was applied to assess interactions between all other chemotherapy combinations presented.
These cell types were chosen because any systemically-administered drug is susceptible to interactions and uptake by endothelial cells, as well as epithelial cells in surrounding healthy tissue.

Data set [2] concerns MDA-MB-231 breast cancer cell line. Briefly: 5FURW cell viability studies (Example 4). The data set is classed as cell-based, human. The settings on record: for IC50: Homo sapiens. As to the method:
(§2) Two breast cancer cell lines (of mouse and human, 4T1 and MDA-MB-231) were tested with the synthesized 5FURW, compared with 5FU and also with encapsulated drug in liposomes functionalized with amino and carboxyl groups (Table 4, FIG. 13).

Data set [3] relates to ROS generation in BT-474 cells. Briefly: Reactive oxygen species generation, carboxy-H2DCFDA confocal microscopy. The format is cell-based, human. The settings on record: 72 hours incubation. As to the method: To visualize and assess the production of reactive oxygen species (ROS), cells were seeded in an 8-well chambered borosilicate coverglass (Nunc Lab-Tek) at a density of 85,000 cells per well in 300 μL medium and grown overnight prior to incubation with drug solutions in fresh medium. After incubation of BT-474 cells with either 5FU and DOX at a molar ratio of 819:1, 5FU alone, or DOX alone for 72 hours, cells were washed three times in PBS and exposed to 10 μM carboxy-H2DCFDA (Invitrogen Life Technologies) in phosphate buffered saline (PBS; Theimo Scientific) for 30 minutes at 37° C. and 5% CO2. Upon acetate cleavage and oxidation, carboxy-H2DCFDA formed carboxydichlorofluorescein and acted as an ROS indicator. Cells were washed thrice more in PBS, finally suspended in cell culture medium, and immediately imaged live using an Olympus Fluoview 1000 spectral confocal microscope. Carboxydichlorofluorescein and DOX were both excited utilizing a 488 nm 10 mW Argon gas laser and visualized with 492-560 nm and 574-674 nm optical filters, respectively. Images were captured as 10 μm z-stacks, and each z-stack was averaged into a single image using ImageJ 1.47 h software (NIH). Fluorescence intensity is reported as the raw integrated density divided by number of cells, determined by DOX fluorescence which coincided with cell nuclei.

The subject of data set [4] is 4T1 breast cancer cell line. Briefly: 5FURW cell viability studies (Example 4). The format is cell-based, mouse. The settings on record: for IC50: Mus musculus. The procedure:
as §2

Data set [5] deals with BT-474 human breast cancer cells. Briefly: Combination Index (CI) study of free drugs, MTT cell viability. The data set is classed as cell-based. The procedure:
as §1

Data set [6] is described as follows: Drug encapsulation in liposomes (absorbance after dissolution). The format is physicochemical. As to conditions: for Drug Incorporation: liposomes 80:10:10 DSPC:DOTAP:Chol containing the 5FU analogue; for enhancement of liposomal drug encapsulation relative to 5FU: cationic liposomes. As to the method:
The dissolved liposomes were centrifuged at 12000 g for 20 minutes to allow the lipids to pellet. […] Drug encapsulation is reported as the mol % of drug with respect to lipids±SD. Liposome sizes and ζ potentials were determined utilizing dynamic light scattering and electrophoretic light scattering, respectively, on a Malvern ZSizer Nano ZS. Samples were diluted 100× in distilled de-ionized water immediately prior analysis, and each measurement is reported as an average of 3 independent sets of at least 13 runs each ±SD. Drug encapsulation was evaluated for each drug, and the encapsulation methods reported here provided the highest yield for each respective drug. […] To remove free drug, liposomes were finally passed through a Sephadex G-25 PD-10 column.

Data set [7] in a line: Liposome size and zeta potential (dynamic/electrophoretic light scattering). The data set is classed as physicochemical. The settings on record: liposomes 80:10:10 DSPC:DOTAP:Chol containing the 5FU analogue. The procedure:
To measure drug encapsulation, 50 μL of drug-loaded liposomes were dissolved in 950 μL methanol through vortexing and sonication. The dissolved liposomes were centrifuged at 12000 g for 20 minutes to allow the lipids to pellet. The supernatant was collected, diluted serially, and their absorbances were measured at 480 nm, 266 nm, 264 nm, 268 nm, 268 nm, and 394 nm to quantify DOX, 5FU, 5FUG, 5FUW, 5FUR, and 5FURW concentrations, respectively. Drug encapsulation is reported as the mol % of drug with respect to lipids±SD. Liposome sizes and ζ potentials were determined utilizing dynamic light scattering and electrophoretic light scattering, respectively, on a Malvern ZSizer Nano ZS. Samples were diluted 100× in distilled de-ionized water immediately prior analysis, and each measurement is reported as an average of 3 independent sets of at least 13 runs each ±SD.

Data set [8] is described as follows: Encapsulation efficiency and loading capacity of drug-loaded liposomes (Example 4). The format is physicochemical. As to conditions: 5FURW in PEGylated liposomes, 2 h encapsulation. The procedure:
Liposomes were prepared with a mixture of DSPC:DSPE-PEG(2000)Amine or DSPE-PEG(2000)Carboxyl:Cholesterol:DOTAP with the ratio 75:5:10:10 via the thin lipid film formation. After the formation of the lipids and passing them through an extruder to obtain monodisperse 100 nm liposomes, the external solvent was changed using a size exclusion column and the drug encapsulated during two hours. Briefly, the thin lipid films were hydrated with 250 mM (NH4)SO4 to form liposomes containing either amine-terminated PEG or carboxy-terminated PEG. 1 mL of liposomes and 200 μL of 73 mM 5FURW were used for the encapsulation of 5FURW into the liposomes. […]
The encapsulation efficiency and loading capacity were calculated as follows: […]
The liposomes were characterized using (i) the Steward assay to determine lipid concentration, (ii) absorbance at 270 nm to evaluate 5FURW concentration, and (iii) dynamic light scattering measurements to evaluate size and surface potential. […]
The DAFODIL fabrication procedure was performed as follows. […] Characterization consisted of absorbance measurements at 270 nm and 480 nm to determine the concentration of 5FURW and DOX, respectively, dynamic light scattering measurements to measure liposome size and surface potential, and Stewart assay to quantify the concentration of lipids in the sample.

The test system of another data set is BT-474 cells. Briefly: Liposomal cancer cell growth inhibition, calcein-AM viability assay. The format is cell-based, human. The procedure: (§3) In vitro anticancer efficacy of drug-loaded liposomes was determined via calcein-AM cell viability assay. BT-474 cells or 4T1 cells were seeded in a 96-well cell culture plate at a density of 11,000 cells per well or 1,000 cells per well in a total volume of 100 μL media and allowed to adhere overnight. Media was then replaced with fresh media containing liposomes and incubated for 72 hours or 48 hours for BT-474 or 4T1 cells, respectively. The discrepancies of cell seeding densities and drug incubation times between BT-474 cells and 4T1 cells is due to the much lower doubling time of 4T1 cells compared to BT-474. Parameters were modified such that untreated cells reached 70% confluency after treatment. After incubation with liposomes, media was aspirated and replaced with 1 μM calcein-AM in PBS for 30 minutes at room temperature. Fluorescence intensity of intracellularly hydrolyzed calcein-AM was measured using excitation and emission wavelengths of 490 nm and 520 nm. Fractional cell inhibition was calculated by subtracting fluorescence of live cells in experimental wells from those of untreated cells and normalizing against untreated cells. D50 concentrations were determined by fitting experimental data to the median-effect model (Chou and Talalay, Advances in Enzyme Regulation 1984, 22, 27-55), and their error is reported as the standard error of the model fit.

The conditions of data set [9]: literature (Haran et al.); cited from earlier work.
Data set [10] concerns 4T1 murine breast cancer cells. Briefly: Liposomal cancer cell growth inhibition, calcein-AM viability assay. The format is cell-based, mouse. As to conditions: 4T1, W concentrations expected during 5FURW cytotoxicity assays, free or liposome-encapsulated. As to the method:
as §3

In the case of `O=c1[nH]cc(F)c(=O)[nH]1` [5FU, 5-fluorouracil, reference compound], the “reduction of D50 ratio (BT-474 relative to MCF 10A) by combining at R=819, relative to individual drug” value in data set [1] worked out at 36 fold. The IC50 in data set [2] was 50.4 µM; in data set [4], 104 µM. For the same compound, the ROS generation result in data set [3] is reported as “negligible ROS generation”. Also, the “BT-474 cancer cell growth inhibited” value in data set [5] (same 5FU concentrations, combination at R=819, FIG. 3B) worked out at 40%. The “Drug Incorporation” value in data set [6] was 0.7 mol % and 0.7 ± 0.2 mol %. This compound showed a Size in [7] of 173.5 ± 43 nm. Moreover, in [7], the “Zeta Potential” value amounted to 41.7 ± 9.8 mV.

As to `NCC(=O)OCn1cc(F)c(=O)[nH]c1=O` [5FUG, 1-[(aminomethyl)-ester]methylene-5-fluorouracil], in data set [6], the “Drug Incorporation” value was 1.4 mol % and 1.4 ± 0.5 mol %. In data set [7], the Size was 161.8 ± 10.8 nm and the “Zeta Potential” value was 41.2 ± 1.8 mV.

For the compound `O=c1[nH]c(=O)n([C@@H]2O[C@H](CO)[C@@H](O)[C@H]2O)cc1F` [5FUR, 5-fluorouridine, reference compound], in data set [6], the “enhancement of liposomal drug encapsulation relative to 5FU” value is reported as about 5 fold; the “Drug Incorporation” value is 3.7 mol % and 3.7 ± 0.2 mol %. Besides, in data set [7], the Size was 177.4 ± 2.8 nm and the “Zeta Potential” value turned out to be 37.9 ± 1.0 mV.

In the case of `NC(Cc1c[nH]c2ccccc12)C(=O)OC[C@H]1O[C@@H](n2cc(F)c(=O)[nH]c2=O)C(OC(=O)C(N)Cc2c[nH]c3ccccc23)C1OC(=O)C(N)Cc1c[nH]c2ccccc12` (some centres unmarked) [5FURW, 5-fluorouridine-2′, 3′, 5′-tritryptophanate], in data set [8], the encapsulation efficiency turned out to be 20% and the loading capacity worked out at 20%. In data set [2], the “activity relative to 5FU” value is 127 fold and the IC50 was 0.396 µM. In addition, in data set [4], the “activity relative to 5FU” value was 2.5 fold and the IC50 was 41.2 µM. In addition, in data set [5] (free solution and liposomes, FIGS. 5A and 5B), the “anticancer activity compared with 5FUR” value is recorded as “same anticancer activity as unmodified 5FUR”. For the same compound, in [6], the “enhancement of liposomal drug encapsulation relative to 5FU” value is reported as 38 fold and the “Drug Incorporation” value was 26.6 ± 2.4 mol %. In [7], the Size was 163.8 ± 17.2 nm and the “Zeta Potential” value was found to be 32.2 ± 6.5 mV.

Turning to `N[C@@H](Cc1c[nH]c2ccccc12)C(=O)OCn1cc(F)c(=O)[nH]c1=O` [5FUW, (5-fluoro-2,4-dioxo-3,4-dihydropyrimidin-1(2H)-yl)methyl tryptophanate], the “Drug Incorporation” value in data set [6] was 3.2 mol % and 3.2 ± 0.4 mol %. For the same compound, in data set [7], the Size was 167.4 ± 1.8 nm and the “Zeta Potential” value was 19.6 ± 0.6 mV.

Take `COc1cccc2c1C(=O)c1c(O)c3c(c(O)c1C2=O)C[C@@](O)(C(=O)CO)C[C@@H]3O[C@H]1C[C@H](N)[C@H](O)[C@H](C)O1` [DOX, doxorubicin]: the IC50 in the data set on BT-474 cells (BT-474, 72 hrs, fit to ME model, read-out: D50 (DOX-equivalent concentration inhibiting 50% cell growth)) was 0.3 µM. Further, the “reduction of D50 ratio (BT-474 relative to MCF 10A) by combining at R=819, relative to individual drug” value in data set [1] stood at 5 fold. In data set [3], the ROS generation result is on record as “Little ROS generation”. The “liposomal encapsulation of DOX” value in [9] is listed as 14-24 mol %.

As to `N[C@@H](Cc1c[nH]c2ccccc12)C(=O)O` [tryptophan], the toxicity entry was “non-toxic” with BT-474 cells (BT-474, W concentrations expected during 5FURW cytotoxicity assays, free or liposome-encapsulated) and “non-toxic” in [10].
